Data: ChEMBL document CHEMBL1134932, “Bridged bicyclic vasopressin receptor antagonists with V(2)-selective or dual V(1a)/V(2) activity” (Bioorg Med Chem Lett, 2002)

Tests used:
Vasopressin V2 receptor [1] = target: T1, Vasopressin V2 receptor (Homo sapiens, UniProt P30518); test: Inhibition of [3H]Arg-vasopressin binding to recombinant human vasopressin V2 receptor
Vasopressin V1a receptor [2] = target: T2, Vasopressin V1a receptor (Homo sapiens, UniProt P37288); test: Inhibition of [3H]Arg-vasopressin binding to recombinant human vasopressin V1a receptor at 0.1 uM
Target sequence in this assay (P37288 whole entry, looked up): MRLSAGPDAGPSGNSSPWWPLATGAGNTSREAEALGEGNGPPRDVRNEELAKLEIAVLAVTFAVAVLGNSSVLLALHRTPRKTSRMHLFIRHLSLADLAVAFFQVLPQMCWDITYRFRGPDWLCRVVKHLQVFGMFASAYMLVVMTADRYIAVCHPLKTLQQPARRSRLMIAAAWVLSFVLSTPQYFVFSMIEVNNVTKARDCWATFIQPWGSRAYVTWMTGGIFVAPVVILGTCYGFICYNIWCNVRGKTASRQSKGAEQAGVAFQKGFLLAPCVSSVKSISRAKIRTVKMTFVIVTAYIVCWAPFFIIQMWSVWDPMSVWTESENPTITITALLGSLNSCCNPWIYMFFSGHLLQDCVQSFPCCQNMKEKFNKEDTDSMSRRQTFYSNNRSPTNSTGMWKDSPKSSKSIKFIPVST

Vasopressin V1a receptor [3] = target: T2, Vasopressin V1a receptor; test: Inhibition of AVP mediated activation of human vasopressin V1a receptor expressed in HEK293 cells; format: cell-based
Target sequence in this assay (P37288 whole entry): as the sequence (P37288 whole entry, looked up) above

Vasopressin V1a receptor [4] = target: T2, Vasopressin V1a receptor; test: Inhibition of [3H]Arg-vasopressin binding to recombinant human vasopressin V1a receptor
Target sequence in this assay (P37288 whole entry): as the sequence (P37288 whole entry, looked up) above

Vasopressin V2 receptor [5] = target: T1, Vasopressin V2 receptor; test: Inhibition of AVP mediated activation of human vasopressin V2 receptor expressed in HEK293 cells; format: cell-based
Rattus norvegicus [6] = test: The clearance rate in mature male rat at a intravenous dose of 3 mg/kg; format: ADME, organism-based; set-up: dose 3 mg/kg, route intravenous; conditions: in vivo
[7] = Oral bioavailability in rat (mature male) (dose 30 mg/kg); format: ADME, organism-based; conditions: in vivo
[8] = The maximum plasma levels for the compounds were determined by LC-MS.; format: ADME, organism-based; conditions: rat
Cytochrome P450 2C9 = Cytochrome P450 2C9 (Homo sapiens, UniProt P11712); test: Inhibition of cytochrome P450 2C9; format: ADME
Cytochrome P450 2C9, sequence (P11712 whole entry): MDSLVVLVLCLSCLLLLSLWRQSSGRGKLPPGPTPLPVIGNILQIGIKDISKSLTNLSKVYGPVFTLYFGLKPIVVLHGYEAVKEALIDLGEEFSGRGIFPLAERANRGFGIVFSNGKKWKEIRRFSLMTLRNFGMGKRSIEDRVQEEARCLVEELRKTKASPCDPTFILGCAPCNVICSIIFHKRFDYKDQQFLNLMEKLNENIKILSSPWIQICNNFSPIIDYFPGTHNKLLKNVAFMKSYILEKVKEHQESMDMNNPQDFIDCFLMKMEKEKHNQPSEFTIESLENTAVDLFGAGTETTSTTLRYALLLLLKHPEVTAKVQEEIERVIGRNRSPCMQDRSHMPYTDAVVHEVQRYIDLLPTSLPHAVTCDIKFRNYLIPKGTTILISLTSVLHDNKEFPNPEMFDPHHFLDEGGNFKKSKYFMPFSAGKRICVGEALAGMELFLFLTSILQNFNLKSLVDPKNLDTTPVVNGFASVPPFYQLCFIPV

Rattus norvegicus [9] = test: Effective dose for reversal of AVP-Induced Hypertension in pentobarbital-anesthetized male Long-Evans rats.; format: functional
Rattus norvegicus [10] = test: Excretion of Creatinine at a dose of 10 mg/kg in male Sprague-Dawley rats; format: functional
Rattus norvegicus [11] = test: Excretion of Creatinine at a dose of 1 mg/kg in male Sprague-Dawley rats; format: functional
Rattus norvegicus [12] = test: Excretion of Creatinine at a dose of 3 mg/kg in male Sprague-Dawley rats; format: functional
Rattus norvegicus [13] = test: Excretion of potassium at a dose of 1 mg/kg in male Sprague-Dawley rats; format: functional
Rattus norvegicus [14] = test: Excretion of potassium at a dose of 3 mg/kg in male Sprague-Dawley rats; format: functional
Rattus norvegicus [15] = test: Excretion of sodium at a dose of 10 mg/kg in male Sprague-Dawley rats; format: functional
Rattus norvegicus [16] = test: Excretion of sodium at a dose of 1 mg/kg in male Sprague-Dawley rats; format: functional
Rattus norvegicus [17] = test: Excretion of sodium at a dose of 3 mg/kg in male Sprague-Dawley rats; format: functional
Rattus norvegicus [18] = test: The diuretic effect in 10 male Sprague-Dawley rats after 4 hrs at a dose of 10 mg/kg by oral route; format: functional, Urine
Rattus norvegicus [19] = test: The diuretic effect in 10 male Sprague-Dawley rats after 4 hrs at a dose of 1 mg/kg by oral route; format: functional, Urine
Rattus norvegicus [20] = test: The Urine osmolality in 10 male Sprague-Dawley rats after 4 hrs at a dose of 10 mg/kg by oral route; format: functional
Rattus norvegicus [21] = test: The Urine osmolality in 10 male Sprague-Dawley rats after 4 hrs at a dose of 1 mg/kg by oral route; format: functional
Rattus norvegicus [22] = test: The Urine osmolality in 10 male Sprague-Dawley rats after 4 hrs at a dose of 3 mg/kg by oral route; format: functional
[23] = Half life tested in mature male rat at a dose of 30 mg/kg; format: ADME, organism-based; set-up: dose 30 mg/kg; conditions: in vivo
Rattus norvegicus [24] = test: Excretion of potassium at a dose of 10 mg/kg in male Sprague-Dawley rats; format: functional
Rattus norvegicus [25] = test: The diuretic effect in 10 male Sprague-Dawley rats after 4 hrs at a dose of 3 mg/kg by oral route; format: functional, Urine
Rattus norvegicus [26] = test: The diuretic effect in 9 male Sprague-Dawley rats after 4 hrs at a dose of 0.3 mg/kg by oral route; format: functional, Urine
Rattus norvegicus [27] = test: The Urine osmolality in 9 male Sprague-Dawley rats after 4 hrs at a dose of 0.3 mg/kg by oral route; format: functional

T1 sequence (P30518 whole entry): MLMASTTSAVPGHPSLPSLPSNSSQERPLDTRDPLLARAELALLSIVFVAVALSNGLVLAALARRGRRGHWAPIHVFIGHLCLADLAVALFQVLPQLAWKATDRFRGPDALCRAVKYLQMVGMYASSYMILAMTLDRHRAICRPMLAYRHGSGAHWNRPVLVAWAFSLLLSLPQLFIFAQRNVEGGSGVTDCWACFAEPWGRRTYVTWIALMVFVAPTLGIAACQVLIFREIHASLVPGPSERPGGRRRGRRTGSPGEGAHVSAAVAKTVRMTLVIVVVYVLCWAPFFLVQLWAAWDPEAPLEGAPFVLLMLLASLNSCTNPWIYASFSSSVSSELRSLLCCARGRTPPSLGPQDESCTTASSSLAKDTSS

## Cc1cc(F)cc(C(=O)Nc2ccc(C(=O)N3C[C@@H]4C5CCC(CC5)N4Cc4ccccc43)c(Cl)c2)c1
Vasopressin V2 receptor [1]
  IC50: 19 nM
Vasopressin V1a receptor [2]
  inhibition: 15%

## O=C(Nc1ccc(C(=O)N2C[C@@H]3C4CCC(C4)N3Cc3cc(Cl)ccc32)cc1)c1ccccc1Cl (some centres undefined)
Vasopressin V2 receptor [1]
  IC50: 10 nM
Vasopressin V1a receptor [3]
  Ki: 130 nM
Vasopressin V1a receptor [4]
  IC50: 5 nM
Vasopressin V2 receptor [5]
  Ki: 32 nM

## Cc1ccc(-c2ccccc2C(=O)Nc2ccc(C(=O)N3C[C@@H]4C5CCC(C5)N4Cc4cc(Cl)ccc43)cc2)cc1 (some centres undefined)
Rattus norvegicus [6]
  Clearance: 2.1 mg/kg/µM/h
[7]
  bioavailability: 7%
[8]
  Cmax: 320 nM
Cytochrome P450 2C9
  IC50: 7400 nM
Rattus norvegicus [9]
  ED50: 0.0074 mg/kg
Rattus norvegicus [10]
  Excretion: 7.7 mg/dL
Rattus norvegicus [11]
  Excretion: 31.4 mg/dL
Rattus norvegicus [12]
  Excretion: 16.2 mg/dL
Rattus norvegicus [13]
  Excretion: 0.3 m equiv 4hr-1
Rattus norvegicus [14]
  Excretion: 0.34 m equiv 4hr-1
Rattus norvegicus [15]
  Excretion: 0.52 m equiv 4hr-1
Rattus norvegicus [16]
  Excretion: 0.07 m equiv 4hr-1
Rattus norvegicus [17]
  Excretion: 0.16 m equiv 4hr-1
Rattus norvegicus [18]
  Urine volume: 17.8 mL
Rattus norvegicus [19]
  Urine volume: 2.9 mL
Rattus norvegicus [20]
  Urine osmolality: 159 mOsmol kg-1
Rattus norvegicus [21]
  Urine osmolality: 387 mOsmol kg-1
Rattus norvegicus [22]
  Urine osmolality: 226 mOsmol kg-1
Vasopressin V1a receptor [3]
  Ki: 23 nM
Vasopressin V2 receptor [5]
  Ki: 13 nM
[23]
  half-life: 2.5 h
Rattus norvegicus [24]
  Excretion: 0.64 m equiv 4hr-1
Rattus norvegicus [25]
  Urine volume: 5.8 mL

## Cc1ccc(F)cc1C(=O)Nc1ccc(C(=O)N2Cc3cccn3Cc3ccccc32)c(Cl)c1 [LIXIVAPTAN]
Vasopressin V2 receptor [1]
  IC50: 5 nM
Vasopressin V1a receptor [4]
  IC50: 150 nM
Vasopressin V2 receptor [5]
  Ki: 90 nM

## O=C(Nc1ccc(C(=O)N2C[C@@H]3C4CCC(C4)N3Cc3cc(Cl)ccc32)cc1)c1ccccc1F (some centres undefined)
Vasopressin V2 receptor [1]
  IC50: 26 nM
Vasopressin V1a receptor [3]
  Ki: 2600 nM
Vasopressin V1a receptor [4]
  IC50: 68 nM
Vasopressin V2 receptor [5]
  Ki: 180 nM

## Cc1ccc(-c2ccccc2C(=O)Nc2ccc(C(=O)N3C[C@@H]4C5CCC(C5)N4Cc4cc(Cl)ccc43)c(Cl)c2)cc1 (some centres undefined)
Vasopressin V2 receptor [1]
  IC50: 30 nM
Vasopressin V1a receptor [4]
  IC50: 35 nM

## O=C(Nc1ccc(C(=O)N2C[C@@H]3C4CCC(CC4)N3Cc3cc(Cl)ccc32)cc1)c1ccccc1Cl
Vasopressin V2 receptor [1]
  IC50: 13 nM
Vasopressin V1a receptor [3]
  Ki: 620 nM
Vasopressin V1a receptor [4]
  IC50: 35 nM
Vasopressin V2 receptor [5]
  Ki: 520 nM

## O=C(Nc1ccc(C(=O)N2C[C@@H]3C4CCC(C4)N3Cc3cc(Cl)ccc32)cc1)c1ccccc1C(F)(F)F (some centres undefined)
Rattus norvegicus [9]
  ED50: 0.38 mg/kg
Vasopressin V2 receptor [1]
  IC50: 7 nM
Vasopressin V1a receptor [3]
  Ki: 40 nM
Vasopressin V1a receptor [4]
  IC50: 4 nM
Vasopressin V2 receptor [5]
  Ki: 9 nM

## O=C(Nc1ccc(C(=O)N2CC3C4CCC(CC4)N3Cc3ccccc32)cc1)c1ccccc1-c1ccccc1 (centres undefined)
Vasopressin V1a receptor [4]
  IC50: ~100 nM

## O=C(Nc1ccc(C(=O)N2C[C@H]3C4CCC(C4)N3Cc3ccccc32)c(Cl)c1)c1ccccc1-c1ccccc1 (some centres undefined)
Rattus norvegicus [6]
  Clearance: 3.3 mg/kg/µM/h
[7]
  bioavailability: 10%
[8]
  Cmax: 230 nM
Rattus norvegicus [18]
  Urine volume: 19.5 mL
Rattus norvegicus [19]
  Urine volume: 3.4 mL
Rattus norvegicus [26]
  Urine volume: 1.4 mL
Rattus norvegicus [20]
  Urine osmolality: 172 mOsmol kg-1
Rattus norvegicus [21]
  Urine osmolality: 303 mOsmol kg-1
Rattus norvegicus [22]
  Urine osmolality: 238 mOsmol kg-1
Rattus norvegicus [27]
  Urine osmolality: 408 mOsmol kg-1
Vasopressin V1a receptor [2]
  inhibition: 7%
Vasopressin V2 receptor [5]
  Ki: 30 nM
[23]
  half-life: 2.5 h
Rattus norvegicus [25]
  Urine volume: 9.4 mL

## O=C(Nc1ccc(C(=O)N2C[C@@H]3C4CCC(C4)N3Cc3ccccc32)c(Cl)c1)c1ccccc1-c1ccccc1 (some centres undefined)
Rattus norvegicus [6]
  Clearance: 1.2 mg/kg/µM/h
[7]
  bioavailability: 14%
[8]
  Cmax: 650 nM
Rattus norvegicus [9]
  ED50: 0.217 mg/kg
Rattus norvegicus [18]
  Urine volume: 29.9 mL
Rattus norvegicus [19]
  Urine volume: 6 mL
Rattus norvegicus [26]
  Urine volume: 2.5 mL
Rattus norvegicus [20]
  Urine osmolality: 138 mOsmol kg-1
Rattus norvegicus [21]
  Urine osmolality: 299 mOsmol kg-1
Rattus norvegicus [22]
  Urine osmolality: 180 mOsmol kg-1
Rattus norvegicus [27]
  Urine osmolality: 444 mOsmol kg-1
Vasopressin V1a receptor [3]
  Ki: 130 nM
Vasopressin V2 receptor [5]
  Ki: 9 nM
[23]
  half-life: 5 h
Rattus norvegicus [25]
  Urine volume: 15.1 mL

## O=C(Nc1ccc(C(=O)N2CC3C4CCC(CC4)N3Cc3ccccc32)c(Cl)c1)c1ccccc1-c1ccccc1 (centres undefined)
Vasopressin V2 receptor [1]
  IC50: 4 nM
Vasopressin V1a receptor [2]
  inhibition: 30%
